In ChEMBL document CHEMBL5038596, “Design, Synthesis, In Vitro and In Vivo Characterization of Selective NKCC1 Inhibitors for the Treatment of Core Symptoms in Down Syndrome” (J Med Chem, 2021):
Each block holds one compound with its values, some of them ahead of it. Calls of active or inactive are those of the source. The calls are words filed in the database; no cut-off is given here.

What was measured:
[1] = molecular target: T1, Solute carrier family 12 member 2 (Homo sapiens) (UniProt P55011); test: Inhibition of NKCC1 (unknown origin) transfected in HEK293 cells expressing mbYFPQS plasmid assessed as reduction in Cl- influx at 10 uM incubated for 30 mins by fluorescence multiplate reader analysis; format: cell-based
T1 sequence (whole entry): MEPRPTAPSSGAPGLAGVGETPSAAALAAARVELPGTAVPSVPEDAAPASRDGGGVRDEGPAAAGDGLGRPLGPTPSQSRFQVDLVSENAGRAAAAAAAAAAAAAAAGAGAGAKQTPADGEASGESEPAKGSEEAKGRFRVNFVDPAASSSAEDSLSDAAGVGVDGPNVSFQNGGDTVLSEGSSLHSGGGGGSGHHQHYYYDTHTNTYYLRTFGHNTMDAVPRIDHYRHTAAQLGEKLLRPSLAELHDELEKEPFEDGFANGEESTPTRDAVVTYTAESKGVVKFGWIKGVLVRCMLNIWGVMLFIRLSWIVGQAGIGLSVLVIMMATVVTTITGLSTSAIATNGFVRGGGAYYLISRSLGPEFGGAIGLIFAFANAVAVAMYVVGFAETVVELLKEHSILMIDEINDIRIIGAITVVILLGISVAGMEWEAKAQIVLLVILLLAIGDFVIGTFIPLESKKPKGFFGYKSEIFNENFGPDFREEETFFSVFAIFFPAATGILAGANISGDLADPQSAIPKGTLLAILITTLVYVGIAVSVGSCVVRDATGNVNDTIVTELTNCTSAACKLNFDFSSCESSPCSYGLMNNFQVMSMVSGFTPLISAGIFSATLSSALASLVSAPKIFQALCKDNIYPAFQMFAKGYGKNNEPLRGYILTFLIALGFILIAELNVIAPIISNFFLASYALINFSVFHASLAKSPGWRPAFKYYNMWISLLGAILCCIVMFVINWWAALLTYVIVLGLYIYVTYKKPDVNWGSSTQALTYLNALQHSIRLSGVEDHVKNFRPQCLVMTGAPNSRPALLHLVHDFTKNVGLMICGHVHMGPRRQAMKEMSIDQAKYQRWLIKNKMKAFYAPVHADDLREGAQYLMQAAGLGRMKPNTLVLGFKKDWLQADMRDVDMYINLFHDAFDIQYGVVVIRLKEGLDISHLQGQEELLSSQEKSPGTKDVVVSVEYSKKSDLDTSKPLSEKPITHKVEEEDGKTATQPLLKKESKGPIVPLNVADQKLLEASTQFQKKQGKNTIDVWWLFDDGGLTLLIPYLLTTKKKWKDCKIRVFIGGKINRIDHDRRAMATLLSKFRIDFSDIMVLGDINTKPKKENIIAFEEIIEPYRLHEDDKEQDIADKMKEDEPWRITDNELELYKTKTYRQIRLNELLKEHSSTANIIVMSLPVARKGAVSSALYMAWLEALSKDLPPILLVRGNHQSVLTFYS

Primary neuron = test: Inhibition of NKCC1 in mouse primary hippocampal neurons assessed as reduction of Ca2+ uptake at 100 uM incubated for 15 mins by Fluo-4AM dye based fluorescence analysis; format: cell-based
[2] = Solubility of compound in assay buffer at pH 7.4 assessed as precipitation at 100 uM measured after 15 mins; format: physicochemical; conditions: pH 7.4, 0.25 h
[3] = molecular target: T1, Solute carrier family 12 member 2 (Homo sapiens); test: Inhibition of NKCC1 (unknown origin) transfected in HEK293 cells expressing mbYFPQS plasmid assessed as reduction in Cl- influx at 100 uM incubated for 30 mins by fluorescence multiplate reader analysis; format: cell-based
[4] = Solubility of compound in Cl- free hypotonic solution at pH 7.4 assessed as precipitation at 100 uM measured after 30 mins; format: physicochemical; conditions: buffer, pH 7.4, 0.5 h
Mus musculus [5] = test: Diuretic activity in wild type mouse assessed as increase in urine volume at 0.6 mg/kg, ip measured after 2 hrs; format: functional, organism-based
Mus musculus [6] = test: Diuretic activity in Ts65Dn mouse assessed as increase in urine volume at 0.6 mg/kg, ip measured after 2 hrs; format: functional, organism-based
[7] = molecular target: T2, Solute carrier family 12 member 5 (Homo sapiens) (UniProt Q9H2X9); test: Inhibition of KCC2 (unknown origin) transfected in HEK293 cells assessed a reduction in TI influx at 10 uM incubated for 1 hr by fluorescence based analysis relative to control; format: cell-based
T2 sequence (whole entry): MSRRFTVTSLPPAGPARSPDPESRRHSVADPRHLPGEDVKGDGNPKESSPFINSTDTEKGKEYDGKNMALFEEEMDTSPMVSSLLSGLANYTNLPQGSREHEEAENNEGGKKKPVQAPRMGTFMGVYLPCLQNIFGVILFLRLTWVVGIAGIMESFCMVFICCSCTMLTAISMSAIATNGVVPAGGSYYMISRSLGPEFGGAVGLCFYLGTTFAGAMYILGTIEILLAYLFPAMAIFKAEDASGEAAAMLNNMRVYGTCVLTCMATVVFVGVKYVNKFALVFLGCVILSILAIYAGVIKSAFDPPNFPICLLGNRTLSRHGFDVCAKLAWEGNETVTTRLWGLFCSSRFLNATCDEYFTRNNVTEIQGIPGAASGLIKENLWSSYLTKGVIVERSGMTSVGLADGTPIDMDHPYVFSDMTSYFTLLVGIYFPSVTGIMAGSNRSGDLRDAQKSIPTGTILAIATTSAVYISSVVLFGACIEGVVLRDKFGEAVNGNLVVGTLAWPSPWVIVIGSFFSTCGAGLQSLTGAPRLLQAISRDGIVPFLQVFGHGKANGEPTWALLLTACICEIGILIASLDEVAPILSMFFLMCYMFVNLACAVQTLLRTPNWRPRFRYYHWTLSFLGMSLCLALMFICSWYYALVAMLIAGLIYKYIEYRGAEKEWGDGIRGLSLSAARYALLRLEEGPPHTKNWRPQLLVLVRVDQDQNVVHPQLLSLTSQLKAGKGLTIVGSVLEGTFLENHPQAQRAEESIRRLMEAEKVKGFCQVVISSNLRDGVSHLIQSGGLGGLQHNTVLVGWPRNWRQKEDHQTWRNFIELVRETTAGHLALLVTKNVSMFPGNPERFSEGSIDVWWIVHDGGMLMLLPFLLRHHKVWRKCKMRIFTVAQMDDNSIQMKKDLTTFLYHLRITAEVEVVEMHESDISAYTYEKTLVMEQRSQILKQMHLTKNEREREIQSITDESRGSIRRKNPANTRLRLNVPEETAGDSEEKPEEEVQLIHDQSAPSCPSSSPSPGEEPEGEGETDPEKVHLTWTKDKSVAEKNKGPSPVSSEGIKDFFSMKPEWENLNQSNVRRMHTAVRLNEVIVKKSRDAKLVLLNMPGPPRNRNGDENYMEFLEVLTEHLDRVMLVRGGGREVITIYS

Mus musculus [8] = test: Cognitive enhancement effect in Ts65Dn mouse assessed as restoration of short-term working memory by measuring number of correct choices at 0.6 mg/kg, ip measured after 1 to 4 weeks by T-maze test; format: functional, organism-based; conditions: time 1-4 weeks
Mus musculus [9] = test: Cognitive enhancement effect in Ts65Dn mouse assessed as rescue of poor novel-discrimination ability by measuring increase in time spent in exploring novel object at 0.6 mg/kg, ip measured after 1 to 4 weeks by novel object recognition test; format: functional, organism-based; conditions: time 1-4 weeks
Mus musculus [10] = test: Cognitive enhancement effect in Ts65Dn mouse assessed as rescue of electric shock induced freezing response at 0.6 mg/kg, ip measured after 1 to 4 weeks by contextual fear-conditioning test; format: functional, organism-based; conditions: time 1-4 weeks
[11] = Toxicity in mouse assessed as reduction in body weight at 0.6 mg/kg, ip administered daily for 3 weeks; format: organism-based; conditions: in vivo, 504 h
Mus musculus [12] = test: Rescue of hyperactivity in Ts65Dn mouse assessed as assessed as reduction in total distance travelled at 0.6 mg/kg, ip measured after 1 to 4 weeks by open field test; format: functional, organism-based; conditions: time 1-4 weeks
[13] = Toxicity in Ts65Dn mouse assessed as reduction in body weight at 0.6 mg/kg, ip administered daily for 3 weeks; format: organism-based; conditions: in vivo, 504 h

inhibition [1]: inactive
SMILES: COCCCCNc1ccc(C(=O)O)cc1S(=O)(=O)N(C)C

inhibition [1]: inactive
SMILES: CCCCCCNc1ccc(C(=O)O)cc1S(=O)(=O)N(C)C

inhibition [1]: inactive
SMILES: CCCCNc1ccc([N+](=O)[O-])cc1S(N)(=O)=O

inhibition [1]: inactive
SMILES: CCCCCCNc1ccc([N+](=O)[O-])cc1S(=O)(=O)N(C)C

solubility [2]: Insoluble
SMILES: O=C(O)c1ccc(NCCCCCCCC(F)(F)F)c(S(=O)(=O)NC2CCCCC2)c1
inhibition (Primary neuron): inactive

inhibition [1]: inactive
inhibition [3]: inactive
SMILES: CCCCCCNc1ccc(C(=O)O)cc1S(=O)(=O)NC

solubility [4]: Insoluble
SMILES: CN(C)S(=O)(=O)c1cc([N+](=O)[O-])ccc1NCCC(C)(C)C

inhibition [1]: inactive
SMILES: CCCCNc1ccc([N+](=O)[O-])cc1S(=O)(=O)NC

inhibition [1]: inactive
inhibition [3]: inactive
SMILES: CCCCCCCCNc1ccc([N+](=O)[O-])cc1S(=O)(=O)NC

inhibition [1]: inactive
SMILES: CN(C)S(=O)(=O)c1cc(C(=O)O)ccc1NCCCC(F)(F)F

inhibition [1]: inactive
solubility [4]: Insoluble
SMILES: CCCCNc1ccc([N+](=O)[O-])cc1S(=O)(=O)N(C)C

inhibition [1]: inactive
SMILES: CCCCCCNc1ccc(C(=O)O)cc1S(N)(=O)=O

inhibition [1]: inactive
SMILES: CN(C)S(=O)(=O)c1cc(C(=O)O)ccc1NCCCCCC(F)(F)F

SMILES: CCCCNc1cc(C(=O)O)cc(S(N)(=O)=O)c1Oc1ccccc1
Activity (Mus musculus [5]): Active
Activity (Mus musculus [6]): Active

solubility [2]: Insoluble
SMILES: O=C(O)c1ccc(NCCCCCCCC(F)(F)F)c(S(=O)(=O)NC2CCCC2)c1
inhibition (Primary neuron): inactive

inhibition [1]: inactive
SMILES: CNS(=O)(=O)c1cc(C(=O)O)ccc1NCCC(C)(C)C

inhibition [1]: inactive
SMILES: CC(C)(C)CCNc1ccc(C(=O)O)cc1S(N)(=O)=O

inhibition [1]: inactive
SMILES: CCCCCCCCNc1ccc(C(=O)O)cc1S(N)(=O)=O

inhibition [1]: inactive
SMILES: CCCCCCNc1ccc([N+](=O)[O-])cc1S(N)(=O)=O

inhibition [1]: inactive
SMILES: CCCCNc1ccc(C(=O)O)cc1S(N)(=O)=O

inhibition [1]: inactive
SMILES: CC(C)(C)CCNc1ccc([N+](=O)[O-])cc1S(N)(=O)=O

inhibition [1]: inactive
SMILES: CCCCCCCCNc1ccc(C(=O)O)cc1S(=O)(=O)N(C)C

solubility [2]: Insoluble
SMILES: O=C(O)c1ccc(NCCCCCCCC(F)(F)F)c(S(=O)(=O)N2CCCCC2)c1
inhibition (Primary neuron): inactive

solubility [2]: Insoluble
SMILES: CN(C)S(=O)(=O)c1cc(C(=O)O)c(OC2CCCC2)cc1NCCCCCCCC(F)(F)F
inhibition (Primary neuron): inactive

inhibition [1]: inactive
inhibition [3]: inactive
SMILES: COCCCCCCNc1ccc(C(=O)O)cc1S(=O)(=O)N(C)C

inhibition [7]: inactive
inhibition [1]: inactive
SMILES: CN(C)S(=O)(=O)c1cc(C(=O)O)c(O)cc1NCCCCCCCC(F)(F)F
Activity (Mus musculus [5]): inactive
Activity (Mus musculus [6]): inactive
Activity (Mus musculus [8]): Active
Activity (Mus musculus [9]): Active
Activity (Mus musculus [10]): Active
Activity [11]: Non-Toxic
Activity (Mus musculus [12]): Active
Activity [13]: Non-Toxic

inhibition [1]: inactive
inhibition [3]: inactive
SMILES: CN(C)S(=O)(=O)c1cc(C(=O)O)ccc1NCCC(C)(C)C

inhibition [1]: inactive
inhibition [3]: inactive
SMILES: CCCCCCCCNc1ccc([N+](=O)[O-])cc1S(=O)(=O)N(C)C
